Experimental data as given in patent US11028052B2, “Compounds useful as modulators of TRPM8” (Firmenich Incorporated, priority 2013, dated 2021).

What was measured:
[1] = test system: panelists; test: Sensory studies, cool line scale vs WS-3 (section 2.2); type: in vivo, human; details: for Sensory Results: compound concentration compared in cooling with a known concentration of WS-3
Text: The results are presented relative to a known concentration of WS-3. A more specific detailed example of the sensory evaluation of selected examples are also presented below. […]

[2] = biological target: T1, hTRPM8 (Homo sapiens, UniProt Q7Z2W7); test: hTRPM8 cell line agonist assay (section 2.1); type: cell-based; details: for EC50: cell line stably expressing hTRPM8; for EC50 Ratio (WS3): relative to WS3 screened on the same day, greater than one = more potent than WS3
T1 construct: expressed in transfected cells
T1 sequence (Q7Z2W7 whole entry): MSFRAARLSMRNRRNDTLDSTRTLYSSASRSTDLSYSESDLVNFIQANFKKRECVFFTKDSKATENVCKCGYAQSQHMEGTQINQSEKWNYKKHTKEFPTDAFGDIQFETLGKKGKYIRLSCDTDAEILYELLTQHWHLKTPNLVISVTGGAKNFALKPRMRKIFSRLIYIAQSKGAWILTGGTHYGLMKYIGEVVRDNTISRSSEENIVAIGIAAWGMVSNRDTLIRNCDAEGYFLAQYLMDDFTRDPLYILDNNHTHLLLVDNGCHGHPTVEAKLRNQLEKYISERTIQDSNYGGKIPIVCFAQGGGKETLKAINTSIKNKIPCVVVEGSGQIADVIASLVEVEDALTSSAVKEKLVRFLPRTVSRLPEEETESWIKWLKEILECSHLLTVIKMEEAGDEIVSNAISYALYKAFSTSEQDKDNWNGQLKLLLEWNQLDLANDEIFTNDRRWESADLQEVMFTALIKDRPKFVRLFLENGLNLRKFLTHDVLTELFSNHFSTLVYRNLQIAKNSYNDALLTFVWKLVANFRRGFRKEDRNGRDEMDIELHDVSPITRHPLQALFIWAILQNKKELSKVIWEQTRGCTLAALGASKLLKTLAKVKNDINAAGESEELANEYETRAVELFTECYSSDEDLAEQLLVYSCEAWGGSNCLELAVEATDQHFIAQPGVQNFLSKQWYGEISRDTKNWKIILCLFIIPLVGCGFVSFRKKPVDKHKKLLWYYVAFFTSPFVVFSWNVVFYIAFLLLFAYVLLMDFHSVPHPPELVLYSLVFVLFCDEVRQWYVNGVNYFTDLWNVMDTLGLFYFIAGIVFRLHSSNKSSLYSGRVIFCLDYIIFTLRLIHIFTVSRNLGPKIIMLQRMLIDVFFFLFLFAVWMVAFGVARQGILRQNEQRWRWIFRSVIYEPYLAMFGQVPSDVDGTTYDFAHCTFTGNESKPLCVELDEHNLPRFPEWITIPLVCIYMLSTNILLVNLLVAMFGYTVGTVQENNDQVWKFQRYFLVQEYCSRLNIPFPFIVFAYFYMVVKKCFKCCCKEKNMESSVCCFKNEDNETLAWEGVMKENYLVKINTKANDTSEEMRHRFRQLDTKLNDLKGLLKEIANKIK
Experimental: A cell line which stably expresses hTRPM8 was used in biological assays in association with testing the present compounds with cool-tasting or -feeling properties. Typical compound concentrations tested were 100 μM, 50 μM, 10 μM, 1 μM, and 0.5 μM. The present compounds have shown activity as agonists of hTRPM8. Assay results for compounds are illustrated in the table below. EC50 in micromoles (μM) is presented as well as the activity relative to WS3 (an established, commercially available cooling agent). […] A value of 1 indicates the compound is equipotent to WS3 in the assay. […] It is noted that Compounds 2.A1 to 2.S6 in the table below are the Examples described in this application. For example, Compound 2.B 1 is Example 2.2.

[3] = test system: panelists; test: Sensory study, cooling line scale vs WS-3 (section 1.2); type: in vivo, human; details: for Average Cooling: 45 μM WS-3 control, 15 point line scale
Experimental: Three typical sensory studies are described below each followed by a table summarizing sensory results of selected compounds of the invention (Tables 1.2 to 1.4).
(§1) All samples made with Low Sodium Buffer (LSB) pH ˜7.1 and contain 0.1% ethanol.
(§2) Compounds are rated on a 15 point line scale where 45 μM WS-3 (N-Ethyl-p-menthane-3-carboxamide) is ranked as a 5 in cool intensity. In most cases our compounds are tested to determine at what concentration the cooling intensity is equivalent to 45 μM WS-3. In each test, the panelist is presented with a 0 μM control sample, a 45 μM WS-3 control sample and the experimental compound sample and asked to rate the cooling intensity of each sample. Panelists are also asked to rate bitterness. In the table below there was no significant bitterness detected unless otherwise noted. Also, in the table below, n represents the number of tests completed for a given experiment (#panelists×#repetitions).

[4] = biological target: T1, hTRPM8; test: hTRPM8 cell based agonist assay (section 3.1); details: for EC50: mammalian cell line stably expressing TRPM8; for EC50 Ratio (WS3): relative to WS3
Text: The present compounds are useful as modulators of TRPM8. The activity of TRPM8 can be readily monitored in cell based assays using fluorescent calcium-sensitive dyes, membrane potential dyes, or sodium-sensitive dyes. The activity of TRPM8 can also be monitored with electrophysiological set-ups, such as patch-clamping and two-electrode voltage clamping. A mammalian cell line derivative which stably expresses TRPM8 was used in biological assays in association with testing the present compounds with cool-tasting or -feeling properties (Servant et al. US 2007/0259354 A1 and references cited therein). Typical compound concentrations tested were 50 μM, 20 μM, 10 μM, 5 μM, 2 μM, 1 μM, 0.5 μM, 0.1 μM, 0.05 μM, 0.01 μM, and other concentration points in between. The present compounds have shown strong activity as agonists of hTRPM8. Assay results for compounds are illustrated in Table 1 below. Specifically, the Compounds listed in Table 3.1, i.e., Compounds 3.A1 to Compounds 3.D1 are the specific compounds as described above.

[5] = test system: panelists; test: Sensory study, cool line scale test vs WS-3 (section 3.2); type: in vivo, human; details: for Average Cooling: Table 3.2, n = 30
Experimental: Two typical sensory studies are described below each followed by a table summarizing sensory results of selected compounds of the invention (Tables 3.2 and 3.3).
as §1
as §2, with “The test is a cool line scale test with timed 30 seconds interval. Compounds” for “Compounds”, “intensity. The present compound was” for “intensity. In most cases our compounds are”, “panelist was” for “panelist is”, “Panelists were” for “Panelists are”

| EC50 [2] [nM] | EC50 Ratio (WS3) [2] | EC50 [4] [nM] | EC50 Ratio (WS3) [4] | Structure (SMILES) | further results |
| --- | --- | --- | --- | --- | --- |
| 172 | 30.1 |  |  | CN1C(=O)N(CC(=O)c2cccnc2)C(=O)C1(C)C1CCCCC1 (centres unmarked) [Compound 2.K3] | Sensory Results [1]: 30 uM~45 uM WS-3 |
| 100 | 73.1 |  |  | CN1C(=O)N(CC(=O)c2ccccc2)C(=O)C1(C)C1CC2CCC1CC2 (single isomer, unassigned) [Compound 2.A3] |  |
|  |  |  |  | CC1=NN(CC(=O)c2ccccc2)C(=O)C1(C)C1CCCCC1 (centres unmarked) [Example A1] | Cooling compared with 0 μM and 45 μM WS-3 (panel conclusion) ([3]; 5 μM): significantly more cooling than 0 μM WS-3 (p<0.05) and not significantly different in cooling than 45 μM WS-3 |
| 182 | 25.9 |  |  | CC1CCCC1C1(C)C(=O)N(CC(=O)c2ccccc2)C(=O)N1C (mixture of isomers) [Compound 2.L3] |  |
|  |  | 13 | 581.6 | CC(C(=O)N(C)CC(=O)c1cccc(O)c1)C1CCCCC1 (centres unmarked) [Example 3.A1] |  |
| 3720 | 0.9 |  |  | CN1C(=O)N(CC(=O)c2cccnc2)C(=O)C1(C)CCc1ccccc1 (centres unmarked) [Compound 2.U5] |  |
|  |  | 504 | 9.4 | CC(C)(C(=O)NCC(=O)c1ccc(O)cc1)C1CCCCC1 [Example 3.C5] |  |
|  |  |  |  | CCNC(=O)C1CC(C)CCC1C(C)C (centres unmarked) [WS-3, N-Ethyl-p-menthane-3-carboxamide, reference compound] | Cool intensity compared with LSB (line scale conclusion) ([1]; 60 μM in LSB at pH 7.1): significantly higher in cool intensity than LSB; Ave Cool ([1]; Table 2.1, 60 μM WS-3, n = 10): 3.7; Average Cooling ([5]; 45 μM WS-3 control): 4.5; Average Cooling ([3]; Table 1.2, n = 30): 4.4; Average Cooling ([3]; Table 1.3, n = 28): 5.4; Average Cooling ([3]; Table 1.4, n = 28): 4.1 |
| 146 | 32.6 |  |  | CC1CCCC1C1(C)C(=O)N(CC(=O)c2cccc(O)c2)C(=O)N1C (mixture of isomers) [Compound 2.G3] | Sensory Results [1]: 15 uM < 45 uM WS-3 |
|  |  | 59 | 62.5 | CC(C(=O)N(C)CC(=O)c1cccs1)C1CCCCC1 (centres unmarked) [Example 3.A10] |  |
| 100 | 49.1 |  |  | CN1C(=O)N(CC(=O)c2cccc(O)c2)C(=O)C1(C)C1CC2CCC1C2 (centres unmarked) [Compound 2.C3] |  |
|  |  |  |  | CN1C(=O)N(CC(=O)c2cccnc2)C(=O)C(C)(C2=CCCCC2)C1=O (centres unmarked) | melting point: 109 to 111 °C |
| 138 | 44.0 |  |  | CN1C(=O)N(CC(=O)c2ccccc2)C(=O)C1(C)C1=CCCCC1 (centres unmarked) [Compound 2.F3] |  |
| 223 | 21.6 |  |  | CN1C(=O)N(CC(=O)c2ccc[nH]2)C(=O)C1(C)C1CC2CCC1C2 (single isomer, unassigned) [Compound 2.O3] |  |
| 163 | 33.8 |  |  | CN1C(=O)N(CC(=O)c2ccccc2)C(=O)C1(C)C1CC2CCC1CC2 (centres unmarked) [Compound 2.I3] |  |
|  |  | 10 | 577.8 | CC(C(=O)N(C)CC(=O)c1ccccc1)C1CCCCC1 (centres unmarked) [Example 3.A2] |  |
|  |  | 41 | 132.4 | C[C@H](C(=O)N(C)CC(=O)c1ccsc1)C1CCCCC1 [Example 3.A4] |  |
| 230 | 38.1 |  |  | CCN1C(=O)N(CC(=O)c2ccccc2)C(=O)C1(C)C1CCCCC1 (centres unmarked) [Compound 2.P3] | Sensory Results [1]: 15 uM < 45 uM WS-3 |
|  |  | 6240 | 1.0 | C[C@H](C(=O)NNC(=O)c1ccccc1)C1CCCCC1 [Example 3.G1] |  |

| EC50 [2] [nM] | EC50 Ratio (WS3) [2] | EC50 [4] [nM] | EC50 Ratio (WS3) [4] | Structure (SMILES) | further results |
| --- | --- | --- | --- | --- | --- |
| 2880 | 1.6 |  |  | CN1CC(C)(C2=CCCCC2)CN(CC(=O)c2ccccc2)C1=O (centres unmarked) [Compound 2.F1] |  |
| 166 | 32.1 |  |  | CN1C(=O)N(CC(=O)c2ccc[nH]2)C(=O)C1(C)C1CCCCC1 (centres unmarked) [Compound 2.J3] | Sensory Results [1]: 15 uM~45 uM WS-3 |
| 374 | 13.5 |  |  | CN1CC(C)(C2CCCCC2)C(=O)N(CC(=O)c2cccnc2)C1=O (centres unmarked) [Example 2.2, 5-cyclohexyl-1,5-dimethyl-3-(2-oxo-2-(pyridin-3-yl)ethyl)dihydropyrimidine-2,4(1H,3H)-dione] |  |
|  |  | 4470 | 2.5 | Cc1cccc(C(C)C(=O)N(C)CC(=O)c2ccccc2)c1 (centres unmarked) [Example 3.E6] |  |
|  |  | 28 | 221.2 | CC(C(=O)N(C)CC(=O)c1cc(O)cc(O)c1)C1CCCCC1 (centres unmarked) [Example 3.A3] |  |
|  |  | 3390 | 1.0 | CC(C(=O)NCC(=O)c1ccccc1)C1CC2CCC1C2 (centres unmarked) [Example 3.F9] |  |
|  | 2810.1 |  |  | CN1C(=O)N(CC(=O)c2cccc(O)c2)C(=O)C1(C)C1CC2CCC1C2 (single isomer, unassigned) [Compound 2.B3] |  |
| 205 | 24.1 |  |  | CC1CCCC1C1(C)C(=O)N(CC(=O)c2ccc[nH]2)C(=O)N1C (centres unmarked) [Compound 2.N3] | Sensory Results [1]: 15 uM < 45 uM WS-3 |
|  |  | 87 | 66.5 | CC(C)(C(=O)NCC(=O)c1cc(O)cc(O)c1)C1CCCCC1 [Example 3.A9] |  |
|  |  | 4170 | 1.1 | CC(C)(C(=O)NCC(O)c1ccccc1)C1CCCCC1 (centres unmarked) [Example 3.F8] |  |
| 135 | 54.6 |  |  | CN1CC(C)(C2=CCCCC2)C(=O)N(CC(=O)c2ccccc2)C1=O (centres unmarked) [Compound 2.A1] | Sensory Results [1]: 10 uM < 45 uM WS-3 |
|  |  | 230 | 26.5 | CC(C)(C(=O)NCC(=O)c1cccnc1)C1CCCCC1 [Example 3.B4] |  |
|  |  | 2160 | 1.9 | CN(CC(=O)c1ccc(F)cc1)C(=O)C(C)(C)C1CCCCC1 [Example 3.E7] |  |
|  |  | 257 | 18.6 | CC(C)(C(=O)NCC(=O)c1cccc(F)c1)C1CCCCC1 [Example 3.B7] |  |
| 127 | 53.5 |  |  | CN1C(=O)N(CC(=O)c2ccccc2)C(=O)C1(C)C1CC2C=CC1CC2 (centres unmarked) [Compound 2.E3] |  |
|  |  | 2350 | 3.9 | CC(C(=O)N(C)CC(=O)c1ccccc1)c1ccccc1 (centres unmarked) [Example 3.D6] |  |
| 124 | 33.4 |  |  | CN1C(=O)N(CC(=O)c2ccc(O)cc2)C(=O)C1(C)C1CCCCC1 (centres unmarked) [Compound 2.D3] |  |
|  |  |  |  | C[C@H](C(=O)N(C)CC(=O)c1ccccc1)C1CCCCC1 [Example 3.2, (S)-2-Cyclohexyl-N-methyl-N-(2-oxo-2-phenylethyl)propanamide] | Cooling compared with 0 μM and 45 μM WS-3 (panel conclusion) ([5]; 5 μM): significantly more cooling than 0 μM WS-3 (p<0.05) and not significantly different in cooling than 45 μM WS-3; Average Cooling ([5]; 5 μM, 15 point line scale): 4.0 |

| Structure (SMILES) | EC50 [2] [nM] | EC50 Ratio (WS3) [2] | EC50 [4] [nM] | EC50 Ratio (WS3) [4] | further results |
| --- | --- | --- | --- | --- | --- |
| CN1C(=O)N(CC(=O)c2ccccc2)C(=O)C(C)(C2=CCCCC2)C1=O (centres unmarked) [Compound 2.M3] | 192 | 240.6 |  |  |  |
